# Assay results taken from ChEMBL document CHEMBL4507266, “Data for DCP probe BAY-784” (2021).
# Key:
# [1] = test system: Tyrosine-protein kinase ABL1 (Homo sapiens), P00519 [Q252H]; details: Compound concentration 1000.0 nM
# [2] = molecular target: Atypical kinase COQ8A, mitochondrial (Homo sapiens) (UniProt Q8NI60); details: Compound concentration 1000.0 nM
# [3] = molecular target: RAC-beta serine/threonine-protein kinase (Homo sapiens) (UniProt P31751); details: Compound concentration 1000.0 nM
# [4] = molecular target: BMP-2-inducible protein kinase (Homo sapiens) (UniProt Q9NSY1); details: Compound concentration 1000.0 nM
# [5] = molecular target: Bone morphogenetic protein receptor type-1B (Homo sapiens) (UniProt O00238); details: Compound concentration 1000.0 nM
# [6] = molecular target: Cytoplasmic tyrosine-protein kinase BMX (Homo sapiens) (UniProt P51813); details: Compound concentration 1000.0 nM
# [7] = molecular target: Serine/threonine-protein kinase B-raf (Homo sapiens) (UniProt P15056); details: Compound concentration 1000.0 nM
# [8] = molecular target: Cyclin-dependent kinase 11A (Homo sapiens) (UniProt Q9UQ88); details: Compound concentration 1000.0 nM
# [9] = molecular target: Cyclin-dependent kinase 3 (Homo sapiens) (UniProt Q00526); details: Compound concentration 1000.0 nM
# [10] = molecular target: Cyclin-dependent kinase 8 (Homo sapiens) (UniProt P49336); details: Compound concentration 1000.0 nM
# [11] = molecular target: Macrophage colony-stimulating factor 1 receptor (Homo sapiens) (UniProt P07333); details: Compound concentration 1000.0 nM
# [12] = molecular target: Serine/threonine-protein kinase DCLK3 (Homo sapiens) (UniProt Q9C098); details: Compound concentration 1000.0 nM
# [13] = test system: Epidermal growth factor receptor (Homo sapiens), P00533 [UNDEFINED MUTATION]; details: Compound concentration 1000.0 nM
# [14] = test system: Epidermal growth factor receptor (Homo sapiens), P00533 [L861Q]; details: Compound concentration 1000.0 nM
# [15] = molecular target: Mitogen-activated protein kinase 6 (Homo sapiens) (UniProt Q16659); details: Compound concentration 1000.0 nM
# [16] = molecular target: Inhibitor of nuclear factor kappa-B kinase subunit epsilon (Homo sapiens) (UniProt Q14164); details: Compound concentration 1000.0 nM
# [17] = molecular target: Insulin receptor-related protein (Homo sapiens) (UniProt P14616); details: Compound concentration 1000.0 nM
# [18] = molecular target: Tyrosine-protein kinase Lck (Homo sapiens) (UniProt P06239); details: Compound concentration 1000.0 nM
# [19] = molecular target: Leucine-rich repeat serine/threonine-protein kinase 2 (Homo sapiens) (UniProt Q5S007); details: Compound concentration 1000.0 nM
# [20] = test system: Hepatocyte growth factor receptor (Homo sapiens), P08581 [M1250T]; details: Compound concentration 1000.0 nM
# [21] = molecular target: Mitogen-activated protein kinase kinase kinase 9 (Homo sapiens) (UniProt P80192); details: Compound concentration 1000.0 nM
# [22] = molecular target: Myosin light chain kinase family member 4 (Homo sapiens) (UniProt Q86YV6); details: Compound concentration 1000.0 nM
# [23] = molecular target: Serine/threonine-protein kinase PAK 2 (Homo sapiens) (UniProt Q13177); details: Compound concentration 1000.0 nM
# [24] = molecular target: Serine/threonine-protein kinase pim-3 (Homo sapiens) (UniProt Q86V86); details: Compound concentration 1000.0 nM
# [25] = molecular target: Phosphatidylinositol 4-phosphate 5-kinase type-1 alpha (Homo sapiens) (UniProt Q99755); details: Compound concentration 1000.0 nM
# [26] = molecular target: Serine/threonine-protein kinase PLK4 (Homo sapiens) (UniProt O00444); details: Compound concentration 1000.0 nM
# [27] = molecular target: Serine/threonine-protein kinase SIK3 (Homo sapiens) (UniProt Q9Y2K2); details: Compound concentration 1000.0 nM
# [28] = molecular target: Dual serine/threonine and tyrosine protein kinase (Homo sapiens) (UniProt Q6XUX3); details: Compound concentration 1000.0 nM
# [29] = molecular target: Ribosomal protein S6 kinase alpha-4 (Homo sapiens) (UniProt O75676); details: Compound concentration 1000.0 nM
# [30] = molecular target: Ribosomal protein S6 kinase alpha-1 (Homo sapiens) (UniProt Q15418); details: Compound concentration 1000.0 nM
# [31] = molecular target: Ribosomal protein S6 kinase beta-1 (Homo sapiens) (UniProt P23443); details: Compound concentration 1000.0 nM
# [32] = molecular target: NUAK family SNF1-like kinase 2 (Homo sapiens) (UniProt Q9H093); details: Compound concentration 1000.0 nM
# [33] = molecular target: Tyrosine-protein kinase receptor TYRO3 (Homo sapiens) (UniProt Q06418); details: Compound concentration 1000.0 nM
# [34] = molecular target: Serine/threonine-protein kinase 32A (Homo sapiens) (UniProt Q8WU08); details: Compound concentration 1000.0 nM
# [35] = molecular target: 5-hydroxytryptamine receptor 2A (Homo sapiens) (UniProt P28223); details: Compound concentration 10.0 uM
# [36] = molecular target: D(1B) dopamine receptor (Homo sapiens) (UniProt P21918); details: Compound concentration 10.0 uM
# [37] = molecular target: Sodium-dependent noradrenaline transporter (Homo sapiens) (UniProt P23975); details: Compound concentration 10.0 uM
# [38] = molecular target: Mu-type opioid receptor (Homo sapiens) (UniProt P35372); details: Compound concentration 10.0 uM
# [39] = molecular target: T1, Muscarinic acetylcholine receptor M1 (Homo sapiens) (UniProt P11229); details: Compound concentration 10.0 uM
# T1 sequence (whole entry): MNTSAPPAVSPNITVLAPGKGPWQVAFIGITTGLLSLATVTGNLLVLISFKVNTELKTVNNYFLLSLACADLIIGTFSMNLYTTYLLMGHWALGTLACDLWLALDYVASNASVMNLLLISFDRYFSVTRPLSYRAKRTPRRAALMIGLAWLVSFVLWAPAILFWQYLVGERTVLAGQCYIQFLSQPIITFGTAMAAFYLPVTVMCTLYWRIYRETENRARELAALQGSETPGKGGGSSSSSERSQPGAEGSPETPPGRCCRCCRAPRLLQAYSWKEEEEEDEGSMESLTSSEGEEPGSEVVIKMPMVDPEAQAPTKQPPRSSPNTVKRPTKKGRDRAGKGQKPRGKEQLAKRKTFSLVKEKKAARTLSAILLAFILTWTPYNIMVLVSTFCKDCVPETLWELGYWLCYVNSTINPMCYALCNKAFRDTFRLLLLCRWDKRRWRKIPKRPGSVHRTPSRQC
# Chain of Serine/threonine-protein kinase 32A (Homo sapiens) (Q8WU08 whole entry): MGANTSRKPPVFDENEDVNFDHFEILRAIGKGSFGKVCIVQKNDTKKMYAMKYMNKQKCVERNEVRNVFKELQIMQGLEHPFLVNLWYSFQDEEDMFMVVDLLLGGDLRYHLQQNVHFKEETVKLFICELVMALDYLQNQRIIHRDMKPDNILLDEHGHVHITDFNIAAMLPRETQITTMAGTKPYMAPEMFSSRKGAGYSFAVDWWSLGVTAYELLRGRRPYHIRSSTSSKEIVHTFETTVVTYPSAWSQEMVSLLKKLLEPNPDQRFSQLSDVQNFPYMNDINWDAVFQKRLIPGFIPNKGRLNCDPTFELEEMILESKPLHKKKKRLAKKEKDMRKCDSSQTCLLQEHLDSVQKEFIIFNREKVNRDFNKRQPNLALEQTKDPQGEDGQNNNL
# Chain of Cytoplasmic tyrosine-protein kinase BMX (Homo sapiens) (P51813 whole entry): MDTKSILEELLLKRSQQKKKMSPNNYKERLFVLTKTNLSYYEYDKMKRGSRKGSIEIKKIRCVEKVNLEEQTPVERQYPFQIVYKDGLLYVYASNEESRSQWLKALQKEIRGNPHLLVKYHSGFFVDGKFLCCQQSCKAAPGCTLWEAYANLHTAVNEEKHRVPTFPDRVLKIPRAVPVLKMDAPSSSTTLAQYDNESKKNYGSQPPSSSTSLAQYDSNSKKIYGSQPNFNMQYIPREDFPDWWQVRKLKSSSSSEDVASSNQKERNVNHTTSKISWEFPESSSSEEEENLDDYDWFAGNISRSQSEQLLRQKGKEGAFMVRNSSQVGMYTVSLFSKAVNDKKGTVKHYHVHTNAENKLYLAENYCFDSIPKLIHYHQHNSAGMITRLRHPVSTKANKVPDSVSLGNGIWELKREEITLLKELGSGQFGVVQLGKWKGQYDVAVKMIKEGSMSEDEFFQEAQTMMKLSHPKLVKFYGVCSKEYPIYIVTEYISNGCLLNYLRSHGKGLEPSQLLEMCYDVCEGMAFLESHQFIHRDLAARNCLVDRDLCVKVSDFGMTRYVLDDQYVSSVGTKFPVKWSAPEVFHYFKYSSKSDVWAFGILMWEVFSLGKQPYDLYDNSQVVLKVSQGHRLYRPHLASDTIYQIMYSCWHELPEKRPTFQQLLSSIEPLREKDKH
# Chain of D(1B) dopamine receptor (Homo sapiens) (P21918 whole entry): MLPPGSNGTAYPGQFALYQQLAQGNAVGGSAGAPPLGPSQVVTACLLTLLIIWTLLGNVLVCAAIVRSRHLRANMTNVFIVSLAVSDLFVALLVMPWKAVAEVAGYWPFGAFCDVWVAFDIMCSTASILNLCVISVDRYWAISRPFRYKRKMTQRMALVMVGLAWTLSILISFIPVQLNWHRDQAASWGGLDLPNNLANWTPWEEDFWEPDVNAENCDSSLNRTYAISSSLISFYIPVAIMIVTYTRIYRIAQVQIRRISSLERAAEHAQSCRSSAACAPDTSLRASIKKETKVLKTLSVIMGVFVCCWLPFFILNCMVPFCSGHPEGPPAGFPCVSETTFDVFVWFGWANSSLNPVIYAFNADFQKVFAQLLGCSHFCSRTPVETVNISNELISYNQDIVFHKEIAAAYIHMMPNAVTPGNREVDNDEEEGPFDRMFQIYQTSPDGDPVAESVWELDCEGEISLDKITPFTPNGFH
# Chain of Ribosomal protein S6 kinase alpha-1 (Homo sapiens) (Q15418 whole entry): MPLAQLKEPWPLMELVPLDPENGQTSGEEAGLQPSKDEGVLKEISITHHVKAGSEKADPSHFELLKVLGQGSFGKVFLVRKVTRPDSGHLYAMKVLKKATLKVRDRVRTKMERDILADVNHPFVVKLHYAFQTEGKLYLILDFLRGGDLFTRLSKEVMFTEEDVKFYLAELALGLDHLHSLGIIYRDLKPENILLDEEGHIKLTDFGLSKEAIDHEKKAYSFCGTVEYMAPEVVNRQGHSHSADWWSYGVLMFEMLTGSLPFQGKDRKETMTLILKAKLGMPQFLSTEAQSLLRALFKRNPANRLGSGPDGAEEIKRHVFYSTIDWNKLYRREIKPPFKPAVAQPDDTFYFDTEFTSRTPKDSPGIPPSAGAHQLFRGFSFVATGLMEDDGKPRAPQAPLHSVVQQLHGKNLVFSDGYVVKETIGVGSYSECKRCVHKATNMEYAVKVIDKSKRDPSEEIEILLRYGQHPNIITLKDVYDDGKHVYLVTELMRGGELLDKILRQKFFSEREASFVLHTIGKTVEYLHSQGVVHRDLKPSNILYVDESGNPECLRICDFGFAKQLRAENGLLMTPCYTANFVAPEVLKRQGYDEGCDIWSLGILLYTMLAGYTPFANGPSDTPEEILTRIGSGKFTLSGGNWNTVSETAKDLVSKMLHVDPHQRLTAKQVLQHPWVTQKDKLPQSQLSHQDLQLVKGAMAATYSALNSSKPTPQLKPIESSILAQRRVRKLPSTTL
# Chain of Cyclin-dependent kinase 8 (Homo sapiens) (P49336 whole entry): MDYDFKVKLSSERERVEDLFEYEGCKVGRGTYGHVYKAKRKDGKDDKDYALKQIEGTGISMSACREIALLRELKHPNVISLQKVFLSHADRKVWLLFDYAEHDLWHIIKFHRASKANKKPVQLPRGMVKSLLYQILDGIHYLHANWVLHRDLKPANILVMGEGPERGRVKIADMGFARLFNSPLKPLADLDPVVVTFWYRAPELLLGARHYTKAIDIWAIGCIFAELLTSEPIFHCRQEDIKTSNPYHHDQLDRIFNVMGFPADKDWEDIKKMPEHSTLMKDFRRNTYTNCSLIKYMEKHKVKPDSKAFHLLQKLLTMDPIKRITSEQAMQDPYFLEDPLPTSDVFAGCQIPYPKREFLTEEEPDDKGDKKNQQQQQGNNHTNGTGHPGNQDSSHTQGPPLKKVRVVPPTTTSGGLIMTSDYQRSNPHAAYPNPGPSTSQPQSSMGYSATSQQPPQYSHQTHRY
# Chain of Mu-type opioid receptor (Homo sapiens) (P35372 whole entry): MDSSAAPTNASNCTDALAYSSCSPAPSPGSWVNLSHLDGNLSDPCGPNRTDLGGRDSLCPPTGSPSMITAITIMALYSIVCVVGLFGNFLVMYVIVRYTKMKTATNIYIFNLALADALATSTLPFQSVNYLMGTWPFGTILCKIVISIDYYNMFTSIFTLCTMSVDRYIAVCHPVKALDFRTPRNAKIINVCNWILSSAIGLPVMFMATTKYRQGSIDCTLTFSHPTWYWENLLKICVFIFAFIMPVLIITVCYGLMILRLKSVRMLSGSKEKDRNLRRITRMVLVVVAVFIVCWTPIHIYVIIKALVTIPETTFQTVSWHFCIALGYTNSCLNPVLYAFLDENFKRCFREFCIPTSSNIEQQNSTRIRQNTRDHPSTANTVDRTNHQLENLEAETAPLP
# Chain of Mitogen-activated protein kinase kinase kinase 9 (Homo sapiens) (P80192 whole entry, looked up): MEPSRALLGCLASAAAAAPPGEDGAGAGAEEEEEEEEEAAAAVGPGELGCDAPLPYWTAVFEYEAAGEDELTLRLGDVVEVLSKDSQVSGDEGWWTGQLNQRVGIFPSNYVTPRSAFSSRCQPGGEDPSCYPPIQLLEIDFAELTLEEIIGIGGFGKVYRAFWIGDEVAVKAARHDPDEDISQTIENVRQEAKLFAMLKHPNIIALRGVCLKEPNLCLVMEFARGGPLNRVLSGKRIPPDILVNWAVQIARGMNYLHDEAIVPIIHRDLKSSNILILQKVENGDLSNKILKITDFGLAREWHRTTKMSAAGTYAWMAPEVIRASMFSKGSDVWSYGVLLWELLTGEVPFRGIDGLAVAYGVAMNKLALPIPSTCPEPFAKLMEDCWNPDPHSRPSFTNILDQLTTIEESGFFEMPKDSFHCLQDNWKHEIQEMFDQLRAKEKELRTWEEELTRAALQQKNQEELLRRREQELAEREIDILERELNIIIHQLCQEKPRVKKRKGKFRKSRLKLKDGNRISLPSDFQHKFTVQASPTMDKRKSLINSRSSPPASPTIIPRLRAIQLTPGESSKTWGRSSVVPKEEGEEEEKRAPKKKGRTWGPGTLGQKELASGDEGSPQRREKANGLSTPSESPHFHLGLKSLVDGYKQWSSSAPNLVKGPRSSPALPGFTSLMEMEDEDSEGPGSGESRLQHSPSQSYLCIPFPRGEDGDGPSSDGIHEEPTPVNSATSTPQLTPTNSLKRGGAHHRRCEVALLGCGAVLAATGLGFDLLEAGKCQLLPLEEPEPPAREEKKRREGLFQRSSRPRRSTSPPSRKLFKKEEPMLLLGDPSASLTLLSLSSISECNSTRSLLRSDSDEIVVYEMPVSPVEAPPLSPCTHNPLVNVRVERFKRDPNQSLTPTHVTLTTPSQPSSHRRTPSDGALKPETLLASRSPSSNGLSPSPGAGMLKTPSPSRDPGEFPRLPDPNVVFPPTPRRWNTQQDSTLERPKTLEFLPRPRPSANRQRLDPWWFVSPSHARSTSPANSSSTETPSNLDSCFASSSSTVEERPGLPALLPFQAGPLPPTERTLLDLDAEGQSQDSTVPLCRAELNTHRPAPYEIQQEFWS
# Chain of Myosin light chain kinase family member 4 (Homo sapiens) (Q86YV6 whole entry): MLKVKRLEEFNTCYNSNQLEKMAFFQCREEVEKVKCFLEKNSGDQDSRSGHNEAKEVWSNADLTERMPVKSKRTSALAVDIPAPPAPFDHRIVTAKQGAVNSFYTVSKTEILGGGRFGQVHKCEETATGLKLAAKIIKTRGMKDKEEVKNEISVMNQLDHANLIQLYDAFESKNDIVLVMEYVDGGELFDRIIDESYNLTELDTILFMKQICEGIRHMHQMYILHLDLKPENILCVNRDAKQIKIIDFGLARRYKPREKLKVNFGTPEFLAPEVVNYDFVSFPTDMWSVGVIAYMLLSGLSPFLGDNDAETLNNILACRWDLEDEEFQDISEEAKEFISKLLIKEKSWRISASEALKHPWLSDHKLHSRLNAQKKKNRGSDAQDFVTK
SMILES,residual activity [1] [%],residual activity [2] [%],residual activity [3] [%],residual activity [4] [%],residual activity [5] [%],residual activity [6] [%],residual activity [7] [%],residual activity [8] [%],residual activity [9] [%],residual activity [10] [%],residual activity [11] [%],residual activity [12] [%],residual activity [13] [%],residual activity [14] [%],residual activity [15] [%],residual activity [16] [%],residual activity [17] [%],residual activity [18] [%],residual activity [19] [%],residual activity [20] [%],also measured
O=C(NCc1ncc(C(F)(F)F)cc1Cl)c1ccc2c(c1)C1(CCS(=O)(=O)CC1)[C@@H](C1CC1)N2S(=O)(=O)c1ccc(F)cc1 [BAY-786],87,90,100,76,85,92,96,100,41,63,87,69,85,76,86,82,100,100,98,100,residual activity [21]: 77%; residual activity [22]: 95%; residual activity [23]: 84%; residual activity [24]: 85%; residual activity [25]: 100%; residual activity [26]: 92%; residual activity [27]: 72%; residual activity [28]: 78%; residual activity [29]: 96%; residual activity [30]: 89%; residual activity [31]: 72%; residual activity [32]: 75%; residual activity [33]: 84%; residual activity [34]: 99%; inhibition [35]: 5.01%; inhibition [36]: -0.49%; inhibition [37]: 3.76%; inhibition [38]: 13.1%; inhibition [39]: -3.7%
O=C(NCc1ncc(C(F)(F)F)cc1Cl)c1ccc2c(c1)C1(CCS(=O)(=O)CC1)[C@H](C1CC1)N2S(=O)(=O)c1ccc(F)cc1 [BAY-784],70,96,100,96,93,100,91,100,100,80,100,92,100,84,87,77,100,100,82,89,residual activity [21]: 100%; residual activity [22]: 100%; residual activity [23]: 100%; residual activity [24]: 100%; residual activity [25]: 100%; residual activity [26]: 92%; residual activity [27]: 100%; residual activity [28]: 76%; residual activity [29]: 100%; residual activity [30]: 100%; residual activity [31]: 64%; residual activity [32]: 81%; residual activity [33]: 100%; residual activity [34]: 100%; inhibition [35]: -4.7%; inhibition [36]: 19.1%; inhibition [37]: 1.03%; inhibition [38]: 29.1%; inhibition [39]: -2.96%
